In patent US20040014721A1, “Method for using tethered bis(polyhydroxyphenyls) and O-alkyl derivatives thereof in treating inflammatory conditions of the central nervous system” (Oklahoma Medical Research Foundation, priority 2002, published 2004):
Read-outs that look alike come from different tables or passages of the source. Each block holds one compound with its values, some of them ahead of it.

Key:
[1] = test system: TNFα-Stimulated NO2^− Production in EOC-20 Cells; assay: TNFα-stimulated nitrite (NO2−) production in EOC-20 microglial cells, Griess assay; type: cell-based, mouse
Description: Cells were cultured in 24 well plates until confluent then treated with test agent, which was dissolved at 100× final concentration in dimethylsulfoxide (DMSO), or with vehicle only. Thirty minutes after treatment with test agent, cells were treated with 10 ng/mL recombinant mouse TNFα (Pharmingen, San Diego, Calif. USA). […] Each compound was tested at 100 μM, 20 μM, 4 μM, 0.8 μM and 0 μM in the presence of TNFα. Four wells of cells were used for each concentration of test agent.
(§1) Lower IC50 values indicate improved efficacy. FIG. 2 illustrates the principle of the measurement using NDGA as an example test agent. In order to determine viability, cell culture medium was replaced with phenol-free DMEM (Gibco) containing 20 μL/mL of MTT viability reagent (Promega). […] Control cells were taken to indicate 100% viability and intermediate values of MTT reduction were scaled to percentage of control. For each compound, an LD50 value was determined by extrapolation through sublethal concentrations. This value represents the concentration that reduced the MTT viability parameter by 50%.

EOC-20 cells = test system: EOC-20 cells
Description: as §1

[2] = Mus musculus, 24 h, Table III, 10 ng/mL TNFα, 24 hr, by interpolation, read-out: IC50
[3] = Table III, 10 ng/mL TNFα, 24 hr, by interpolation
[4] = Table III, MTT viability, by extrapolation through sublethal concentrations
[5] = Table III, 10 ng/mL TNFα, 24 hr, by interpolation, read-out: IC50
[6] = Mus musculus, Table V, read-out: IC50

- IC50 [1, 2]: 106 µM
SMILES: COc1ccc(-c2coc3cc(O)ccc3c2=O)cc1
- LD50 (EOC-20 cells; mouse): 126 μm

- IC50 [1, 3]: Inactive
SMILES: O=C(O)CCCC[C@@H]1CCSS1 (racemic) [Lipoic acid]

SMILES: CC(C)(C)[N+]([O-])=Cc1ccccc1O [2-OH-PBN]
- IC50 [1, 3]: Inactive
- LD50 (EOC-20 cells; [4]): nontoxic

- IC50 [1, 2]: 41 µM
SMILES: O=c1c(O)c(-c2ccccc2)oc2cc(O)cc(O)c12 [3,5,7-trihydroxy-flavone (galangin), 3,5,7-trihydroxy-flavone]
- LD50 (EOC-20 cells; mouse): 58 μm

SMILES: CC(C)(C)[N+]([O-])=Cc1cccc(O)c1 [3-OH-PBN]
- IC50 [1, 3]: Inactive
- LD50 (EOC-20 cells; [4]): nontoxic

SMILES: O=c1c(O)c(-c2ccccc2)oc2ccccc12 [3-OH-flavone]
- IC50 [1, 5]: 70 µM
- LD50 (EOC-20 cells): 125 μm

SMILES: CC(C)(C)[N+]([O-])=Cc1ccc(O)cc1 [4-OH-PBN]
- IC50 [1, 3]: Inactive
- LD50 (EOC-20 cells; [4]): nontoxic

SMILES: O=c1cc(-c2ccc(O)cc2)oc2cc(O)cc(O)c12 [4′,5,7-trihydroxy-flavone (apigenin), 4′,5,7-trihydroxy-flavone]
- IC50 [1, 2]: 55 µM
- LD50 (EOC-20 cells; [4]): 87 μm

SMILES: O=c1c(-c2ccc(O)cc2)coc2cc(O)cc(O)c12 [4′,5,7-trihydroxy-isoflavone (genistein), 4′,5,7-trihydroxy-isoflavone]
- IC50 [1, 2]: 46 µM
- LD50 (EOC-20 cells; [4]): nontoxic

SMILES: COc1cc(O)c2c(=O)c(-c3ccc(O)cc3)coc2c1 [4′,5-dihydroxy-7-methoxy-isoflavone]
- IC50 ([1]; Mus musculus, Table III, 10 ng/mL TNFα, 24 hr, by interpolation, read-out: IC50): 120 µM
- LD50 (EOC-20 cells; [4]): nontoxic

- IC50 [1, 2]: 49 µM
SMILES: COc1ccc(-c2coc3cc(O)cc(O)c3c2=O)cc1 [4′-methoxy-5,7-dihydroxyisoflavone]
- LD50 (EOC-20 cells; mouse): 112 μm

SMILES: O=c1cc(-c2ccccc2)oc2cc(O)ccc12 [7-OH-flavone, 7-OH-flavone]
- IC50 [1, 5]: 65 µM
- LD50 (EOC-20 cells; [4]): 125 μm

SMILES: COc1cccc2c1cc([N+](=O)[O-])c1c(C(=O)O)cc3c(c12)OCO3 [Aristolochic acid]
- IC50 ([1]; Mus musculus): 29 µM
- LD50 (EOC-20 cells; Table V): 100 µM

SMILES: c1ccc2c(c1)ccc1c3ccccc3ccc21 [Chrysene]
- IC50 [1, 3]: Inactive
- LD50 (EOC-20 cells; [4]): nontoxic

- IC50 [1, 2]: 110 µM
SMILES: O=c1oc2c(O)c(O)cc3c(=O)oc4c(O)c(O)cc1c4c23 [Ellagic acid]
- LD50 (EOC-20 cells): nontoxic

SMILES: O=c1cc(-c2ccccc2)oc2ccccc12 [Flavone]
- IC50 [1, 2]: 60 µM
- LD50 (EOC-20 cells; [4]): 7 μm

- IC50 [1, 3]: Inactive
- IC50 ([1]; Table V): Inactive
SMILES: CC(C)Cc1ccc(C(C)C(=O)O)cc1 (centres unmarked) [Ibuprofen]
- activity against TNFα-stimulated nitrite production [1]: weak activity

SMILES: COc1ccc2c(c1)c(CC(=O)O)c(C)n2C(=O)c1ccc(Cl)cc1 [Indomethacin]
- activity against TNFα-stimulated nitrite production [1]: weak activity
- IC50 [1, 2]: 61 µM
- IC50 [1, 6]: 61 µM
- LD50 (EOC-20 cells; [4]): 124 μm
- LD50 (EOC-20 cells; Table V, * obtained by linear extrapolation from points ≦100 μM): 124* μM

SMILES: CC(C)c1ccc2c(c1)c(SC(C)(C)C)c(CC(C)(C)C(=O)O)n2Cc1ccc(Cl)cc1 [MK-886]
- IC50 ([1]; Table V, read-out: IC50): 41 µM
- LD50 (EOC-20 cells): 40 µM

- IC50 [1, 2]: 49 µM
SMILES: CN(C)c1ccc(O)c2c1C[C@H]1C[C@H]3[C@H](N(C)C)C(O)=C(C(N)=O)C(=O)[C@@]3(O)C(O)=C1C2=O [Minocycline]

SMILES: C[C@H](Cc1ccc(O)c(O)c1)[C@@H](C)Cc1ccc(O)c(O)c1 [NDGA (natural), nordihydroguaiaretic acid]
- IC50 [1, 2]: 3.1 µM
- IC50 [1, 6]: 3 µM

SMILES: C[C@H](Cc1ccc(O)c(O)c1)[C@@H](C)Cc1ccc(O)c(O)c1 [NDGA (synthetic), nordihydroguaiaretic acid]
- IC50 [1, 5]: 4 µM
- IC50 ([1]; Table V, read-out: IC50): 4 µM

- IC50 [1, 6]: 20 µM
SMILES: CS(=O)(=O)Nc1ccc([N+](=O)[O-])cc1Oc1ccccc1 [Nimesulide]

- IC50 [1, 5]: 64 µM
SMILES: CN(C)[C@@H]1C(O)=C(C(N)=O)C(=O)[C@@]2(O)C(O)=C3C(=O)c4c(O)cccc4[C@@](C)(O)[C@H]3[C@H](O)[C@@H]12 [Oxyletracycline]

SMILES: C[S+]([O-])c1ccc(-c2nc(-c3ccncc3)c(-c3ccc(F)cc3)[nH]2)cc1 (centres unmarked) [SB203580]
- LD50 (EOC-20 cells; [4]): 100 μm

SMILES: CCOc1ccc(CC(C)C(C)Cc2ccc(OCC)c(OCC)c2)cc1OCC (centres unmarked) [Tetra-ethyl ether of NDGA (synthetic), Tetra-ethyl ether of NDGA]
- IC50 ([1]; read-out: IC50): 0.8 µM
